Where “and” joins values, the source holds several entries; their conditions need not be identical. Identical values can stand only once. Like-named read-outs stand apart in the source and are kept apart here. Ends that are not written are not given here.
Key:
Fusarium graminearum [1] = format: cell-based; settings: for inhibition of growth of F. graminearum, more than NaD1: 0.825 ppm; for IC50: read-out: IC50 against Fusarium graminearum (Fgr)
Fusarium verticilloides = format: cell-based; settings: 3.25 ppm
[2] = test system: Colletotrichum graminicola; format: cell-based; settings: 13 ppm
Aspergillus niger = format: cell-based
[3] = test system: Cryptococcus neoformans (C1065); format: cell-based; settings: 13 ppm
C. neoformans (C2067) = format: cell-based, Cryptococcus neoformans; settings: 6.5 ppm
C. gattii = format: cell-based, Cryptococcus gattii
Fusarium graminearum [4] = format: cell-based
[5] = test system: Colletotrichum graminicola; format: cell-based
[6] = test system: Colletotrichum graminicola; test: Transgenic corn leaf sheath bioassay, lesion area, C. graminicola; settings: in vivo
[7] = test system: Asian soybean rust (Phakopsora pachirhizi); format: cell-based; settings: 10 ppm
Fusarium graminearum [8] = settings: in vivo

HXP35: PSD1 Loop 1B (DTYRGV) in NaD1 backbone, SEQ ID NO:41 (RECKTESDTYRGVCITKPPCRKACISEKFTDGHCSKILRRCLCTKPC; ends and bridges not checked; cysteine pairing not given here)
inhibition of growth of F. graminearum, more than NaD1 (Fusarium graminearum [1]): 34.5%
inhibition of growth of F. verticilloides, more than NaD1 (Fusarium verticilloides): 5.1%
inhibition of growth of C. graminicola, more than NaD1 [2]: 83.2%

HXP4: NaD2 Loop 1B (HRFKGP) in NaD1 backbone, SEQ ID NO:39 (RECKTESHRFKGPCITKPPCRKACISEKFTDGHCSKILRRCLCTKPC; ends and bridges not checked; cysteine pairing not given here)
inhibition of growth of F. graminearum, more than NaD1 (Fusarium graminearum [1]): 41.7%
inhibition of growth of F. verticilloides, more than NaD1 (Fusarium verticilloides): 40.9%
inhibition of growth of C. graminicola, more than NaD1 [2]: 61.3%
activity expressed as percent of NaD1, A. niger (Aspergillus niger; 13 ppm): greater than 112%
inhibition of growth of A. niger, more than NaD1 (Aspergillus niger; 13 ppm): 20.6%
inhibition of growth of A. niger, more than NaD1 (Aspergillus niger; 26 ppm): at least 10%
inhibition of growth of A. niger, more than NaD1 (Aspergillus niger; 53 ppm): at least 10%
activity as percent of the activity of NaD1, C. neoformans (C1065) [3]: more than 596%
inhibition of growth of Cryptococcus neoformans (C1065) [3]: completely inhibited
inhibition of growth of C. neoformans (C2067) (C. neoformans (C2067)): more than 80%
inhibition of growth of C. gatti, more than NaD1 (C. gattii; 6.5 ppm): 38%
inhibition of growth of C. gatti, more than NaD1 (C. gattii; 13 ppm): 10%
synergistic effect with protease inhibitors against Fusarium graminearum (Fusarium graminearum [4]): greater synergistic effect with protease inhibitors than NaD1
synergy with protease inhibitors against Colletotrichum graminicola [5]: synergistic with protease inhibitors
Percent inhibition relative of empty vector control (reduction in lesion area), Cgr [6]: 26%
inhibition of appresorium formation, more than NaD1 ([7]; 24 hours): 65%
inhibition of germination of Asian soybean rust, more than NaD1 ([7]; 24 hours): 62%
inhibition of formation of post-appresorium structures, more than NaD1 ([7]; 48 hours): 59%

HXP107: NaD2 Loop 1B in TPP3 backbone, SEQ ID NO:85 (QQICKAPSHRFKGPCFMDSSCRKYCIKEKFTGGHCSKLQRKCLCTKPC; Synthetic construct TPP3 backbone with NaD2 Loop 1B)
IC50 (Fusarium graminearum [1]): 500 nM

HXP34: Zea2 Loop 1B (QHHSFP) in NaD1 backbone, SEQ ID NO:40 (RECKTESQHHSFPCITKPPCRKACISEKFTDGHCSKILRRCLCTKPC; ends and bridges not checked; cysteine pairing not given here)
inhibition of growth of F. graminearum, more than NaD1 (Fusarium graminearum [1]): 14.6%
inhibition of growth of F. verticilloides, more than NaD1 (Fusarium verticilloides): 29.4%
inhibition of growth of C. graminicola, more than NaD1 [2]: 21.8%

TPP3: Class II solanaceous defensin (Solanum lycopersicum), SEQ ID NO:5, parent protein of HXP107 (QQICKAPSQTFPGLCFMDSSCRKYCIKEKFTGGHCSKLQRKCLCTKPC; Synthetic construct Amino acid sequence of portion of TPP3 (Solanum lycopersicum) containing Loop 1B) [reference compound]
IC50 (Fusarium graminearum [1]): 200 nM

B1: HXP4 + HvCPI6: barley cystatin HvCPI6 and modified defensin HXP4 co-expressed from one construct in corn, SEQ ID NO:83 (protein)
chain: MANKHLSLSLFLVLLGLSASLASGATSALGRRGVLLGGWSPVKDVNDPHVQELGGWAVAQHASLAKDGLLFRRVTRGEQQVVSGMNYRLFVVAADGSGKRVTYLAQIYEHWSRTRKLTSFKPAAGGEEKKNRECKTESNTFPGICITKPPCRKACISEKFTDGHCSKILRRCLCTKPCVFDEKMTKTGAEILAEEAKTLAAALLEEEIMDN
modifications: Synthetic construct Amino acid sequence of HvCPI6-L-HXP4-CTPP
Percent inhibition relative of empty vector control (reduction in lesion area), Fgr (Fusarium graminearum [8]): 45%

B2: CI-1B: barley type-I inhibitor, recombinant (protein)
chain: MRSMEGSVPKYPEPTEGSIGASGAKRSWPEVVGMSAEKAKEIILRDKPDAQIEVIPVDAMVPLDFNPNRIFILVAVARTPTVG
modifications: Synthetic construct Amino acid sequence of CI-1B
Ee, expected effect from the additive response (Limpel's formula) (Fusarium graminearum [4]): 12.1 percent inhibition and 17.1 percent inhibition

B3: NaPin1A: Nicotiana alata type I proteinase inhibitor (protein)
chain: QSGCPGVTKERWPELLGTPAKFAMQIIQKENPKLTNVQTILNGRPVTEDLRCNRVRLFVNVLDFVVQTPQVG
modifications: Synthetic construct Amino acid sequence of NaPin1A
Ee, expected effect from the additive response (Limpel's formula) [5]: 11.8 percent inhibition
Io, percent inhibition observed [5]: 69.3 percent inhibition

Source: patent US10174339B2 (priority 2011, dated 2019)
